Like-named read-outs stand apart in the source and are kept apart here.
What was measured:
[1] = target: T1, Full length wild-type cereblon CRBN (Homo sapiens, UniProt Q96SW2); assay: Fluorescence polarization (FP) assay indicating cereblon binding
T1 construct: Full length wild-type cereblon CRBN (80.0 nM, 10 μL) was incubated in assay buffer
Text: Protocol for Fluorescent Polarization Assay
Compound activity was monitored in a fluorescence polarization (FP) homogeneous assay using 1-[5-({2-[2-(2-{[2-(2,6-dioxopiperidin-3-yl)-1,3-dioxo-2,3-dihydro-1H-isoindol-4-yl]oxy}acetamido)ethoxy]ethyl}carbamoyl)pentyl]-3,3-dimethyl-2-[(1E,3E)-5-[(2E)-1,3,3-trimethyl-5-sulfo-2,3-dihydro-1H-indol-2-ylidene]penta-1,3-dien-1-yl]-3H-indol-1-ium-5-sulfonate as a fluorescent probe. Unless otherwise stated, all reagents were purchased from Sigma Aldrich. Enzymatic reactions were conducted in Perkin-Elmer Black 384 well ProxiPlate Plus (catalogue no. 6008269) in 10 μL total volume. Full length wild-type cereblon CRBN (80.0 nM, 10 μL) was incubated in assay buffer containing 20 mM HEPES (pH 8.0), […], 0.5 mM TCEP and 0.05% Tween 20 in the presence or absence of compound (300 nL). Inhibitors were stored as 10 mM DMSO stocks in an inert environment (low humidity, dark, low oxygen, room temperature) using the Storage Pod System. Compounds and DMSO were dispensed using the Echo E5XX (Labcyte Inc. USA) to give concentrations from 300 to 0.937 or 3000 to 9.3 nM in a 12 data point curve. […] Following incubation at room temperature for 30 min, the assay was initiated by dispensing the probe to a final concentration of 5 nM (2.5 nL of a 20 μM stock) using the Echo E5XX. FP was measured after a period of 12 hours using a Pherastar plate reader (BMG Labtech, Germany) exciting at 590 nm and measuring the amount of parallel and perpendicular light at 675 nm. The FP signal was subsequently normalized to the no-compound control (i.e., DMSO). Analysis and IC50 values were derived using Dotmatics (Dotmatics UK) software.

IKZF1 = target: T2, IKZF1 (Homo sapiens, UniProt Q13422+Q96SW2); assay: Selectivity determination by Western blot assay in MM1S cells: IKZF1; format: cell-based; parameters: key: A represents no degradation observed at 30 μM; B represents trace degradation at 30 μM (below 20%); C represents weak degradation at 30 μM (below 50%); D represents degradation at 30 μM (>90%); E represents degradation at 3 μM (>90%); F represents degradation at 0.3 μM (>90%); conditions: MM1S cells, 0.3, 3 and 30 μM, 6 hours
T2 construct: MM1S cells were purchased from ATCC (cat. Number CRL-2974); host or cells: MM1S cells
Procedure: (§1) MM1S cells were purchased from ATCC (cat. Number CRL-2974), sub-cultured in […] RPMI 1640 with 10% FBS, supplemented with Ix P/S and incubated at 37° C., […]. Compounds were stored as 10 mM DMSO stock. For the assay, MM1S cells (3 million cells/well) were plated in 6-well plates and incubated over night. Cells were treated with respective compounds using a serial dilution: 0.3 μM, 3 μM and 30 μM as well as a vehicle only (DMSO) control for 6 hours. Media with suspension cells was subsequently transferred to 15 mL conical tubes, wells rinsed twice with ice-cold PBS and merged with cell suspension in respective 15 mL conical tube. Cells were spinned down, supernatant aspirated, pellets resuspended in ice-cold PBS and transferred to microtubes. Cells were spinned down, supernatant aspirated and pellets resuspended in 120 μL RIPA lysis buffer supplemented with protease and phosphatase inhibitors. Cell lysates were incubated on ice for 20 minutes followed by centrifugation at >20,000×g for 5 min. Supernatants were transferred to fresh microtubes and stored at −80° C. Total protein concentration was determined using a BCA assay with a BSA standard curve and concentration of all samples was adjusted to 1 mg/mL. […] Chemiluminescence signals were then detected using a LAS-4000 system with default settings and signals quantified using Image Studio Lite software (version 5.2). […]

IKZF3 = target: T3, IKZF3 (Homo sapiens, UniProt Q96SW2+Q9UKT9); assay: Selectivity determination by Western blot assay in MM1S cells: IKZF3; format: cell-based; parameters: key: A represents no degradation observed at 30 μM; B represents trace degradation at 30 μM (below 20%); C represents weak degradation at 30 μM (below 50%); D represents degradation at 30 μM (>90%); E represents degradation at 3 μM (>90%); F represents degradation at 0.3 μM (>90%); conditions: MM1S cells, 0.3, 3 and 30 μM, 6 hours
T3 construct: MM1S cells were purchased from ATCC (cat. Number CRL-2974); host or cells: MM1S cells
Procedure: as §1

[2] = cereblon binding, CRBN 80.0 nM, probe 5 nM, FP read after 12 hours, read-out: rFP IC50
[3] = fluorescence polarization assay, read-out: IC50 value (cereblon binding)

T1 sequence (Q96SW2 whole entry): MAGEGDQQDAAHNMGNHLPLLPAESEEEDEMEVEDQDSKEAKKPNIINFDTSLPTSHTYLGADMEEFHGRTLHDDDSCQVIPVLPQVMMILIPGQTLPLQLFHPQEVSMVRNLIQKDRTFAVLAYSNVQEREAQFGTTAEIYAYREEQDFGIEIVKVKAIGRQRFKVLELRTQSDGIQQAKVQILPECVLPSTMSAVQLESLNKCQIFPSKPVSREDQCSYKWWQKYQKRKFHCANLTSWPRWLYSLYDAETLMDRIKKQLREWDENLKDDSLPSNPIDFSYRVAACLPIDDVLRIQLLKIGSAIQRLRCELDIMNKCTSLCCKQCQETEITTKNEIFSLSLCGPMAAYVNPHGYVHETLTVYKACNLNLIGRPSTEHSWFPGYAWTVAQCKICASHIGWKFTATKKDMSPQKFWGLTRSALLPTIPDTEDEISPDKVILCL
T2 sequence (Q13422 whole entry): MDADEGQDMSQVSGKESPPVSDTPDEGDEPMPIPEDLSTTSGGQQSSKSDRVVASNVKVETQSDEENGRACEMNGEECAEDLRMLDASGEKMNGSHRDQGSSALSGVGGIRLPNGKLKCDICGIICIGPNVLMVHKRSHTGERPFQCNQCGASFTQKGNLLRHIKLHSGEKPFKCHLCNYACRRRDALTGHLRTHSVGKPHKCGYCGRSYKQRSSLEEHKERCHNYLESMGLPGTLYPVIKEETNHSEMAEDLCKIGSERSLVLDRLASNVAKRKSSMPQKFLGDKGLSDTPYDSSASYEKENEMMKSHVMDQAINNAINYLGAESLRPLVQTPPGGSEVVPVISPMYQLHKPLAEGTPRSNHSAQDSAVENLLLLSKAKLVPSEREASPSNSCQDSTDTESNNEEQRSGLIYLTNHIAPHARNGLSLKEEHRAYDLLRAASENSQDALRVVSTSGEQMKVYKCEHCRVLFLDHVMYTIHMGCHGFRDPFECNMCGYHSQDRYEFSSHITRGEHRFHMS
T2 sequence (Q96SW2 whole entry): as the sequence (Q96SW2 whole entry) above
T2 sequence (Q16531 whole entry partner): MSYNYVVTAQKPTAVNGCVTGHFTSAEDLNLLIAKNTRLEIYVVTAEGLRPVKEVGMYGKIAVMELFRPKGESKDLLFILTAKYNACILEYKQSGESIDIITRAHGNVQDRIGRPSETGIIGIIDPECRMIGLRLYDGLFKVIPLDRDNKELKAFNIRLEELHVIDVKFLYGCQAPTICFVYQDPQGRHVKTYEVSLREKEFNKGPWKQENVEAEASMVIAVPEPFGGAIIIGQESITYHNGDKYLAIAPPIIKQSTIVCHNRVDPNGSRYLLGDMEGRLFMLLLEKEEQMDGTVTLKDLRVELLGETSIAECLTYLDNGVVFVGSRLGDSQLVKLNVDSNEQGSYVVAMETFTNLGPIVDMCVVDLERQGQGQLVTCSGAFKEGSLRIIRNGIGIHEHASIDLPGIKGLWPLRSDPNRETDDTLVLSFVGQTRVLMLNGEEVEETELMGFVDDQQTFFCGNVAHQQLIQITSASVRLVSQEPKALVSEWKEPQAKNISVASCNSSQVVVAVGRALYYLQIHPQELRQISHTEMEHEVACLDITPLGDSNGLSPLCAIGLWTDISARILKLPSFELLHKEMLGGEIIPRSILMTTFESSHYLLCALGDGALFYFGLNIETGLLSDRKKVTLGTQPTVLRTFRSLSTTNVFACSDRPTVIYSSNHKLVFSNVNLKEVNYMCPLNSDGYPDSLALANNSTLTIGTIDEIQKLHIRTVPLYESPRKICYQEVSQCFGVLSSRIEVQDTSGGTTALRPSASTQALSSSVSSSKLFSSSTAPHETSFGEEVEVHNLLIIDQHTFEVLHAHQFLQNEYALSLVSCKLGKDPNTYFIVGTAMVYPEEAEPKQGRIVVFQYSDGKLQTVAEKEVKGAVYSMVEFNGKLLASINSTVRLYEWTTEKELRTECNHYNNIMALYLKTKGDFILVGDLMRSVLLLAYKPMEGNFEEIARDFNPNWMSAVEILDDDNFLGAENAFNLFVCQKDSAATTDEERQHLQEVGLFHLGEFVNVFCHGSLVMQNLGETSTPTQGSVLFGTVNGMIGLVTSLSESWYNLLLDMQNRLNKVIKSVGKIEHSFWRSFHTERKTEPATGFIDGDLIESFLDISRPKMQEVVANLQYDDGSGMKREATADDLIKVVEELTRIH
T3 sequence (Q9UKT9 whole entry): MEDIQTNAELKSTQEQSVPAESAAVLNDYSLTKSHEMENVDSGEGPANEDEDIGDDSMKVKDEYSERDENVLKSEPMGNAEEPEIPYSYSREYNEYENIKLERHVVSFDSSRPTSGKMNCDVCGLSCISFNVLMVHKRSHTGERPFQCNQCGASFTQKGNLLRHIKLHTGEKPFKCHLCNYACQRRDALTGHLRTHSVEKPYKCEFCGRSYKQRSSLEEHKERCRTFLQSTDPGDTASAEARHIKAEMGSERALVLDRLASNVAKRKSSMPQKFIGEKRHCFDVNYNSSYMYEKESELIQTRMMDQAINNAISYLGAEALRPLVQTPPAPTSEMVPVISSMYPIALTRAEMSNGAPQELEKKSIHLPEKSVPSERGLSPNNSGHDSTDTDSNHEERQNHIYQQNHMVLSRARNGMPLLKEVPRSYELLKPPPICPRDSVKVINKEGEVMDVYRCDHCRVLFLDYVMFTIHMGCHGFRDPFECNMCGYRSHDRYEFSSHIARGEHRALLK
T3 sequence (Q96SW2 whole entry): as the sequence (Q96SW2 whole entry) above
T3 sequence (Q16531 whole entry partner): as the sequence (Q16531 whole entry partner) above

IC50 [1, 2] [nM]	IC50 [1, 3] [nM]	IKZF1 degradation code (IKZF1)	SMILES	IKZF3 degradation code (IKZF3)
≤ 500	< 1100	A	Cc1c(Cl)cc(NC(=O)CCc2ccc3c(c2)C(=O)N(C2CCC(=O)NC2=O)C3)cc1CN1CCOCC1 (centres unmarked) [Compound 2]	C (C represents weak degradation at 30 μM (below 50%))
≤ 500	< 1100	A	Cc1ccc(NC(=O)CCc2ccc3c(c2)C(=O)N(C2CCC(=O)NC2=O)C3)cc1Cl (centres unmarked) [Compound 1]	A

From US20240051937A1, “ISOINDOLINONE AMIDE COMPOUNDS USEFUL TO TREAT DISEASES ASSOCIATED WITH GSPT1” (Monte Rosa Therapeutics, Inc., priority 2021, published 2024)
